In US7166625B2, “Method for treating fibrotic diseases and other indications” (Alteon, Inc., priority 2000, dated 2007):
Where a name gives a salt, the structure may show the parent alone.

Experiments:
[1] = literature series of mainly imidazolium compounds; cited from earlier work
dog model for diabetes = experiment: Dog model for diabetes, ventricular elasticity; format: in vivo
Excerpt: (§1) Cardiovascular risk correlates more closely with the systolic and the pulse pressure than with the diastolic pressure. In diabetic patients, the cardiovascular risk profile of diabetic patients is strongly correlated to duration of diabetes, glycemic control and blood pressure. Structural matrix proteins contribute to the function of vessels and the heart, and changes in the physical behavior of cardiovascular walls are believed to be important determinants of circulatory function. In elderly individuals, the loss of compliance in the aorta leads to isolated systolic hypertension, which in turn expands the arterial wall and thereby diminishes the dynamic range of elasticity. […] Treatment with 3-[2-phenyl-2-oxoethyl]-4,5-dimethyl-thiazolium salt lead to a reduction in the mass of collagen in cardiovascular tissues.

TGFbeta = experiment: In situ hybridization studies, TGFbeta expression
Excerpt: as §1

[2] = test system: rodents, canines and primates; experiment: In vivo studies of vascular stiffening and collagen mass in cardiovascular tissues
Excerpt: as §1

Rats = experiment: Rat myocardial infarct after ligation of the left anterior descending coronary artery; format: in vivo; settings: 10 mg/kg daily intraperitoneal, 30 days before and 14 days after coronary ligation
Procedure: Rats received a daily intraperitoneal dose of 10 mg/kg 3-[2-phenyl-2-oxoethyl]-4,5-dimethyl-thiazolium salt (compound A) (n=14) or placebo (n=15) for 30 days. The animals then underwent a thoracotomy and the left anterior descending coronary artery ligated. The chest was then closed and the animals allowed to recover for 14 days while continuing to be treated with compound A or placebo. The animals were then sacrificed and the hearts removed for histological examination. The weight of the infarcted tissue was 0.16±0.04 g for the placebo treated animals compared to 0.11±0.05 g for the compound A treated animals (p=0.04).

[3] = test system: elderly patients with pulse pressures greater than 60 mm Hg; experiment: Phase IIa clinical trial; format: in vivo, human
Excerpt: When the heart pumps blood into the vascular system, the ability of the arteries to expand helps to push blood through the body. When arteries become stiff, as they do in the natural process of aging, the ability of the arteries to expand is diminished and also has consequences for the heart. The heart has to work harder to pump the blood into the stiff arteries, and eventually hypertrophies (enlarges in size) to accomplish this. A hypertrophied heart is an inefficient pump, and is one of the disorders that leads to congestive heart failure. […] The potential clinical benefit of this is to lessen the effort that the heart must expend to push blood throughout the body. The effect is also believed to contribute to preventing hypertrophy and subsequent inefficiency of the heart, which inefficiency would contribute to congestive heart failure.
Atherosclerosis is a disease that involves deposition of blood lipids in plaque in the arteries throughout the body. In coronary arteries, accumulation of plaque progressively leads to reduced coronary flow, with occlusion of the arteries causing focal death of cardiac tissue (myocardial infarction, heart attack). If the amount of tissue that dies is large enough, death ensures. In a Phase IIa trial, one compound believed to work by a mechanism shared by the compounds of the invention, 3-[2-phenyl-2-oxoethyl]-4,5-dimethyl-thiazolium salt, […] the amount of circulating triglycerides (lipids). […] Reducing local deposits of plaque should eventually lessen the risk of myocardial infarction and death due to heart attacks.
Pulse pressure is the difference between systolic and diastolic blood pressure. In a young human, systolic pressure is typically 120 mm Hg and diastolic pressure is 80 mm Hg, resulting in a pulse pressure of 40 mm Hg. With age, in many individuals pulse pressure increases, largely due to the increase in systolic pressure that results from stiff vessel disease. In individuals with pulse pressure greater than 60 mm Hg there is an increased risk of death from cardiovascular morbidities.

Type IV collagen = experiment: In situ hybridization studies, Type IV collagen expression
Excerpt: as §1

Molecule	glucose lowering effect [1]	end diastolic pressure and end diastolic volume, indicators of ventricular elasticity (dog model for diabetes)	expression of TGFbeta (TGFbeta)	mass of collagen in cardiovascular tissues ([2]; in vivo)	vascular stiffening ([2]; in vivo studies in rodents, canines and primates)	thickness of the ventricular wall in the infarcted zone (Rats; p=0.09 vs placebo) [mm]	weight of the infarcted tissue (Rats; placebo 0.16±0.04 g, p=0.04) [g]	stiffness of arteries, measured by the ratio of stroke volume (ml) to pulse pressure (mm Hg) ([3]; Phase IIa clinical trial)	amount of circulating triglycerides (lipids) ([3]; Phase IIa trial)	pulse pressure ([3]; Phase IIa trial, elderly patients with pulse pressures greater than 60 mm Hg, statistically significant)	expression of Type IV collagen (Type IV collagen)
3-[2-(3,5-Dimethoxyphenyl)-2-oxoethyl]-oxazolium	inactive	–	–	–	–	–	–	–	–	–	–
Cc1sc[n+](CC(=O)c2ccccc2)c1C [compound A, 3-[2-phenyl-2-oxoethyl]-4,5-dimethyl-thiazolium salt]	–	returned to a value at about the mid-point between the disease impaired value and the value for control dogs	reduces	reduction	substantially ameliorating vascular stiffening	2.56±0.22	0.11 ± 0.05	reverse the stiffness of arteries	increased	reduced	reduces
